Results from patent publication US6387893B1, “Spirotricyclic substituted azacycloalkane derivatives and uses thereof” (Merck & Co., Inc., priority 1999, dated 2002).
Where a name gives a salt, the structure may show the parent alone.

Tests used:
[1] = target: T1, human alpha 1a adrenergic receptor (Homo sapiens, UniProt P35348); experiment: Screening assay: alpha 1a adrenergic receptor binding ([125I]-HEAT competition); conditions: membranes from stably transfected human alpha 1a cell line (ATCC CRL 11140), 100 pM [125I]-HEAT
T1 sequence (P35348 1-466): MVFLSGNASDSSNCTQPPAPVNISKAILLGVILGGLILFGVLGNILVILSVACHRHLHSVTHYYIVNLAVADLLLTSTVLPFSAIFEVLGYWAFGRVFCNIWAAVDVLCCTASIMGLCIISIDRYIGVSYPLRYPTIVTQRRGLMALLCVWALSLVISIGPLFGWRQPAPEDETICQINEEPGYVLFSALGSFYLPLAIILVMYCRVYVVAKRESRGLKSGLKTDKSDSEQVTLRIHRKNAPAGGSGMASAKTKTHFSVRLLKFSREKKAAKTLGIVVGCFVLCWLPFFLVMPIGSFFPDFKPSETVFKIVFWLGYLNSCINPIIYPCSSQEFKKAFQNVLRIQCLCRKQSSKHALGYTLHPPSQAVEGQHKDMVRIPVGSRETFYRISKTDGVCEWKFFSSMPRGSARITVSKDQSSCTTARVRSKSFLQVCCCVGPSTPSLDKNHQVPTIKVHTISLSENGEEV
Description: Screening Assay: Alpha 1a Adrenergic Receptor Binding
Membranes prepared from the stably transfected human alpha 1a cell line (ATCC CRL 11140) were used to identify compounds that bind to the human alpha 1a adrenergic receptor. These competition binding reactions (total volume=200 μl) contained 50 mM Tris-HCl pH. 7.4, 5 mM EDTA, 150 mM NaCl, 100 pM [^125I]-HEAT, membranes prepared from the alpha 1a cell line and increasing amounts of unlabeled ligand. Reactions were incubated at room temperature for one hour with shaking. Reactions were filtered onto Whatman GF/C glass fiber filters with a Inotec 96 well cell harvester. Filters were washed three times with ice cold buffer and bound radioactivity was determined (Ki).

Row | SMILES | melting point | Ki [1]
1 | O=C1OCC(c2ccc(F)c(F)c2)N1CCCCN1CCC2(CC1)c1ccccc1Sc1ccccc12 (centres unmarked) (as salt: HCl) | 97 to 132 °C | 
2 | O=C(NCCCN1CCC2(CC1)c1ccccc1Sc1ccccc12)N1C(=O)OC[C@@H]1c1ccc(F)c(F)c1 (as salt: HCl) | 140 to 176 °C | 
3 | COCC1=C(C(=O)OC)C(c2ccc(F)c(F)c2)N(C(=O)NCCCN2CCC3(CC2)c2ccccc2Sc2ccccc23)C(=O)N1 (centres unmarked) (as salt: HCl) | 140 to 170 °C | 
4 | O=C1OC[C@H](c2ccc(F)c(F)c2)N1CCCCCN1CCC2(CC1)c1ccccc1Sc1ccccc12 (as salt: HCl) [Example 19, 4-(S)-(3,4-Difluorophenyl)-3-[5-(spirothioxanthen-9,4′-piperidin-1′-yl)-pentyl]-oxazolidin-2-one] | 90 to 130 °C | 
5 | O=C1OC[C@H](c2ccc(F)c(F)c2)N1CCCCCCN1CCC2(CC1)c1ccccc1Sc1ccccc12 (as salt: HCl) [Example 20, 4-(S)-(3,4-Difluorophenyl)-3-[6-(spirothioxanthen-9,4′-piperidin-1′-yl)-hexyl]-oxazolidin-2-one] | 90 to 130 °C | 
6 | O=C(NCCCN1CCC2(CC1)c1ccccc1[S+]([O-])c1ccccc12)N1C(=O)OC[C@@H]1c1ccc(F)c(F)c1 (as salt: HCl) [Example 26, 1′-{3-[(4S)-(3,4-Difluorophenyl)-2-oxooxazolidin-3-carbonylamino]propyl}-(10-oxo-spirothioxanthene-9,4′-piperidine)] | 184 to 193 °C | 
7 | COCC1=C(C(=O)OC)[C@H](c2ccc(F)c(F)c2)N(C(=O)NCCCN2CCC3(CC2)c2ccccc2[S+]([O-])c2ccccc23)C(=O)N1 (as salt: HCl) [Example 27, 1,2,3,6-tetrahydro-1-[(10-oxo-spirothioxanthene-9,4′-piperidin-1′-yl)propyl]aminocarbonyl-5-methoxycarbonyl-4-methoxymethyl-6(S)-(3,4-difluorophenyl)-2-oxopyrimidine] | 185 to 196 °C | 
8 | O=C(NCCCN1CCC2(CC1)c1ccccc1S(=O)(=O)c1ccccc12)N1C(=O)OC[C@@H]1c1ccc(F)c(F)c1 (as salt: HCl) [Example 32, 1′-{3-[(4S)-(3,4-Difluorophenyl)-2-oxooxazolidin-3-carbonylamino]propyl}-(10,10-dioxo-spirothioxanthene-9,4′-piperidine)] | 158 to 187 °C | 
9 | COCC1=C(C(=O)OC)[C@H](c2ccc(F)c(F)c2)N(C(=O)NCCCN2CCC3(CC2)c2ccccc2S(=O)(=O)c2ccccc23)C(=O)N1 (as salt: HCl) [Example 33, 1,2,3,6-tetrahydro-1-[(10,10-dioxo-spirothioxanthene-9,4′-piperidin-1′-yl)propyl]aminocarbonyl-5-methoxycarbonyl-4-methoxymethyl-6(S)-(3,4-difluorophenyl)-2-oxopyrimidine] | 158 to 196 °C | 
10 | COCC1=C(C(=O)OC)[C@H](c2ccc(F)c(F)c2)N(C(=O)NCCCN2CCC3(CC2)c2ccccc2-c2ncccc23)C(=O)N1 (as salt: hydrochloride) [Example 49] | 157 to 180 °C | 
11 | Cc1ccc(C2(c3ccc(C)cc3)NC(=O)N(CCCN3CCC4(CC3)c3ccccc3-c3ccccc34)C2=O)cc1 [Example 4, 1′-[3-(5,5-Bis-p-tolyl-2,4-dioxoimidazolidin-3-yl)propyl]spirofluorene-9,4′-piperidine] |  | < 20 nM
12 | O=C(NCCCN1CCC2(CC1)c1ccccc1-c1ccccc12)N1C(=O)OC[C@@H]1c1ccc(F)c(F)c1 [Example 6, 1′-{3-[(4S)-(3,4-Difluorophenyl)-2-oxooxazolidin-3-carbonylamino]propyl}spirofluorene-9,4′-piperidine] |  | < 20 nM
13 | COCC1=C(C(=O)OC)[C@H](c2ccc(F)c(F)c2)N(C(=O)NCCCN2CCC3(CC2)c2ccccc2-c2ccccc23)C(=O)N1 [Example 8, 1,2,3,6-tetrahydro-1-[(spirofluorene-9,4′-piperidin-1′-yl)propyl]aminocarbonyl-5-methoxycarbonyl-4-methoxymethyl-6(S)-(3,4-difluorophenyl)-2-oxopyrimidine] |  | < 20 nM
14 | Cc1ccc(C2(c3ccc(C)cc3)NC(=O)N(CCCN3CCC4(CC3)c3ccccc3-c3ccc(Br)cc34)C2=O)cc1 [Example 10, 1′-[3-(5,5-Bis-p-tolyl-2,4-dioxoimidazolidin-3-yl)propyl]-2-bromospirofluorene-9,4′-piperidine] |  | < 20 nM
15 | COCC1=C(C(=O)OC)[C@H](c2ccc(F)c(F)c2)N(C(=O)NCCCN2CCC3(CC2)c2ccccc2-c2ccc(F)cc23)C(=O)N1 [Example 14, 1,2,3,6-tetrahydro-1-[((2-fluorospirofluorene-9,4′-piperidin)-1′-yl)propyl]aminocarbonyl-5-methoxycarbonyl-4-methoxymethyl-6(S)-(3,4-difluorophenyl)-2-oxopyrimidine] |  | < 20 nM
16 | O=C(NCCCN1CCC2(CC1)c1ccccc1[S+]([O-])c1ccccc12)N1C(=O)OC[C@@H]1c1ccc(F)c(F)c1 [Example 26, 1′-{3-[(4S)-(3,4-Difluorophenyl)-2-oxooxazolidin-3-carbonylamino]propyl}-(10-oxo-spirothioxanthene-9,4′-piperidine)] |  | < 20 nM
17 | COCC1=C(C(=O)OC)[C@H](c2ccc(F)c(F)c2)N(C(=O)NCCCN2CCC3(CC2)c2ccccc2[S+]([O-])c2ccccc23)C(=O)N1 [Example 27, 1,2,3,6-tetrahydro-1-[(10-oxo-spirothioxanthene-9,4′-piperidin-1′-yl)propyl]aminocarbonyl-5-methoxycarbonyl-4-methoxymethyl-6(S)-(3,4-difluorophenyl)-2-oxopyrimidine] |  | < 20 nM
18 | O=C(NCCCN1CCC2(CC1)c1ccccc1S(=O)(=O)c1ccccc12)N1C(=O)OC[C@@H]1c1ccc(F)c(F)c1 [Example 32, 1′-{3-[(4S)-(3,4-Difluorophenyl)-2-oxooxazolidin-3-carbonylamino]propyl}-(10,10-dioxo-spirothioxanthene-9,4′-piperidine)] |  | < 20 nM
19 | COCC1=C(C(=O)OC)[C@H](c2ccc(F)c(F)c2)N(C(=O)NCCCN2CCC3(CC2)c2ccccc2S(=O)(=O)c2ccccc23)C(=O)N1 [Example 33, 1,2,3,6-tetrahydro-1-[(10,10-dioxo-spirothioxanthene-9,4′-piperidin-1′-yl)propyl]aminocarbonyl-5-methoxycarbonyl-4-methoxymethyl-6(S)-(3,4-difluorophenyl)-2-oxopyrimidine] |  | < 20 nM
20 | O=C(NCCCN1CCC2(CC1)c1ccccc1Oc1ccc(Cl)cc12)N1C(=O)OC[C@@H]1c1ccc(F)c(F)c1 [Example 40, 1′-{3-[(4S)-(3,4-Difluorophenyl)-2-oxooxazolidin-3-carbonylamino]propyl}-2-chlorospiroxanthene-9,4′-piperidine] |  | < 20 nM
21 | O=C(NCCCN1CCC2(CC1)c1cc(Cl)ccc1Oc1ccc(Cl)cc12)N1C(=O)OC[C@@H]1c1ccc(F)c(F)c1 [Example 42, 1′-{3-[(4S)-(3,4-Difluorophenyl)-2-oxooxazolidin-3-carbonylamino]propyl}-2,7-dichlorospiroxanthene-9,4′-piperidine] |  | < 20 nM
22 | O=C(NCCCN1CCC2(CC1)c1cc(F)ccc1Oc1ccc(F)cc12)N1C(=O)OC[C@@H]1c1ccc(F)c(F)c1 [Example 44, 1′-{3-[(4S)-(3,4-Difluorophenyl)-2-oxooxazolidin-3-carbonylamino]propyl}-2,7-difluorospiroxanthene-9,4′-piperidine] |  | < 20 nM
23 | COCC1=C(C(=O)OC)[C@H](c2ccc(F)c(F)c2)N(C(=O)NCCCN2CCC3(CC2)c2ccccc2-c2ncccc23)C(=O)N1 [Example 49] |  | < 20 nM
24 | COCC1=C(C(=O)OC)[C@H](c2ccc(F)c(F)c2)N(C(=O)NCCCN2CCC3(CC2)c2ccccc2-c2cccnc23)C(=O)N1 [Example 53, 1,2,3,6-tetrahydro-1-[3-((spiro(9H-indeno[2,1-b]pyridine)-9,4′-piperidin)-1′-yl)propylaminocarbonyl]-5-methoxycarbonyl-4-methoxymethyl-6(S)-(3,4-difluorophenyl)-2-oxopyrimidine] |  | < 20 nM
25 | O=C(NCCCN1CCC2(CC1)c1ccccc1CCc1ccccc12)N1C(=O)OC[C@@H]1c1ccc(F)c(F)c1 [Example 57, 1′-{3-[4(S)-(3,4-difluorophenyl)-2-oxooxazolidin-3-carbonylamino]-propyl}-(10,11-dihydrospiro-5H-dibenzo[a,d]cycloheptene)-5,4′-piperidine] |  | < 20 nM
26 | O=C1OC[C@H](c2ccc(F)c(F)c2)N1CCCCCN1CCC2(CC1)c1ccccc1CCc1ccccc12 [Example 58, 1′-{5-[4(S)-(3,4-difluorophenyl)-2-oxooxazolidin-3-yl]-pentyl}-(10,11-dihydrospiro-5H-dibenzo[a,d]cycloheptene)-5,4′-piperidine] |  | < 20 nM
